Measurements taken from article PMC6133161, “Thiazoles with cyclopropyl fragment as antifungal, anticonvulsant, and anti-Toxoplasma gondii agents: synthesis, toxicity evaluation, and molecular docking study” (Medicinal Chemistry Research, 2018).
Values after ≈ are worked out from the molar mass of the structure shown.

Experiments:
[1] = test system: Toxoplasma gondii RH strain; experiment: [3H]-uracil incorporation assay in VERO host cells; conditions: Toxoplasma gondii, Vero, read-out: Proliferation of Toxoplasma gondii RH strain ± SD
[2] = test system: PTZ-induced clonic seizures; experiment: PTZ seizure test; format: in vivo, mouse; conditions: mice, ip, 60 min before PTZ 100 mg/kg sc; vs vehicle
Method: For in vivo tests that assessed anticonvulsant properties of the test compounds 3a–3j adult male Albino Swiss (CD-1) mice weighing between 18 and 22 g were used. The animals were housed in groups of ten mice per cage at room temperature of 22 ± 2 °C, under light/dark (12:12) cycle. The animals had free access to food and tap water before the experiments. The ambient temperature of the experimental room and humidity (50 ± 10%) were kept consistent throughout all the tests. For behavioral experiments the animals were selected randomly. Each experimental group consisted of 4–8 animals/dose. The experiments were performed between 9 AM and 2 PM. Immediately after the in vivo assay the animals were euthanized by cervical dislocation. All procedures were approved by the Local Ethics Committee of the Jagiellonian University in Krakow (34/2018, 1.02.2018)) and the treatment of animals was in full accordance with ethical standards laid down in respective Polish and EU regulations (Directive No. 86/609/EEC). For in vivo tests the compounds 3a–3j were prepared in 1% Tween 80 solution (POCH, Poland) and they were administered by the intraperitoneal route. Control mice received 1% Tween 80. Pentylenetetrazole (PTZ), pilocarpine hydrochloride and scopolamine butylbromide were provided by Sigma Aldrich (Poland). For the tests they were prepared in 0.9% saline (Polfa Kutno, Poland). PTZ and pilocarpine were administered 60 min after the test compound or vehicle. To assess anticonvulsant properties of the test compounds anticonvulsant screening was conducted. Four assays were used: PTZ, maximal electroshock seizure (MES), 6-Hz and pilocarpine tests. In these assays the dose of 100 mg/kg was chosen as a starting dose. If it turned out to be effective, a lower dose (30 mg/kg) was also tested. The test was performed according to a method previously described (Sałat et al. [2005]). Clonic convulsions were induced by the subcutaneous (sc) administration of PTZ at a dose of 100 mg/kg. After PTZ injection, each mouse was immediately placed in a transparent Plexiglas cage (30 × 20 × 15 cm) and was observed during the next 30 min for the occurrence of clonic seizures. Clonic seizures were defined as clonus of the whole body lasting more than 3 s, with an accompanying loss of righting reflex. Latency time to first clonus and the number of seizure episodes were noted and compared between vehicle-treated and drug-treated groups.

C. sake = experiment: Broth microdilution MIC/MFC, clinical isolate; format: cell-based; conditions: Fermentozyma sake, C. sake clinical strain; for MFC: read-out: MFC; for MIC: read-out: MIC
Method in brief: (§1)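 Clinical Candida isolates at 0.5 McFarland were tested by two-fold broth microdilution in RPMI 1640 with MOPS, final 1000 to 0.0038 µg/ml. MIC was read spectrophotometrically as complete growth inhibition. MFC was the lowest concentration with no visible growth after spotting MIC wells onto agar. Triplicate experiments.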

C. parapsilosis = experiment: Broth microdilution MIC/MFC, clinical isolate; format: cell-based; conditions: Lodderomyces parapsilosis, C. parapsilosis clinical strain; for MFC: read-out: MFC; for MIC: read-out: MIC
Method in brief: as §1

C. pulcherrima = experiment: Broth microdilution MIC/MFC, clinical isolate; format: cell-based; conditions: C. pulcherrima clinical strain; for MFC: read-out: MFC; for MIC: read-out: MIC
Method in brief: as §1

C. lusitaniae = experiment: Broth microdilution MIC/MFC, clinical isolate; format: cell-based; conditions: Clavispora lusitaniae, C. lusitaniae clinical strain; for MFC: read-out: MFC; for MIC: read-out: MIC
Method in brief: as §1

In the case of `COc1ccc(-c2csc(N/N=C/C3CC3)n2)cc1` [Compound 3f, (E)-2-(2-(Cyclopropylmethylene)hydrazinyl)-4-(4-methoxyphenyl)thiazole], the melting point is reported as 149 to 152 °C, the activity at 0.98 µg/mL [1] is reported as 89.61 ± 0.77% and the activity at 1.95 µg/mL [1] is reported as 84.2 ± 5.47%. It also gave an activity at 3.91 µg/mL [1] of 79.2 ± 6.07%, an activity at 7.81 µg/mL [1] of 86.2 ± 6.35% and an activity at 15.63 µg/mL [1] of 63 ± 4.88%. For the same compound, the activity at 20 µg/mL [1] was 58.5 ± 3.72%, the activity at 25 µg/mL [1] was 57.8 ± 6.09% and the activity at 31.25 µg/mL [1] was 68 ± 5.37%. The “latency time to first clonus” value [2] was “significantly prolonged”, the “number of seizure episodes” value [2] was “reduced” and the MFC (C. sake) was 7.81 µg/mL (≈ 28.6 µM). The MIC (C. sake) was 0.06 µg/mL (≈ 0.219 µM), the MFC (C. parapsilosis) was 0.98 µg/mL (≈ 3.59 µM) and the MIC (C. parapsilosis) was 0.12 µg/mL (≈ 0.439 µM). The MFC (C. pulcherrima) was greater than 1000 µg/mL, the MIC (C. pulcherrima) was 31.2 µg/mL (≈ 114 µM) and the MFC (C. lusitaniae) was 0.48 µg/mL (≈ 1.76 µM). The MIC (C. lusitaniae) was 0.12 µg/mL (≈ 0.439 µM).
For `[N-]=[N+]=Nc1ccc(-c2csc(N/N=C/C3CC3)n2)cc1` [Compound 3i, (E)-4-(4-Azidophenyl)-2-(2-(cyclopropylmethylene)hydrazinyl)thiazole], the melting point was 124 to 126 °C, the activity at 0.98 µg/mL [1] was 95.3 ± 10.6% and the activity at 1.95 µg/mL [1] was 93.3 ± 4.67%. For the same compound, the activity at 3.91 µg/mL [1] was 105 ± 2.24%, the activity at 7.81 µg/mL [1] was 92.2 ± 3.71% and the activity at 15.63 µg/mL [1] was 98.8 ± 4.29%. The “latency time to first clonus” value [2] was “significantly prolonged”, the “number of seizure episodes” value [2] was “reduced” and the MFC (C. sake) was 7.81 µg/mL (≈ 27.5 µM). It also gave an MIC (C. sake) of 0.48 µg/mL (≈ 1.69 µM), an MFC (C. parapsilosis) of 0.98 µg/mL (≈ 3.45 µM) and an MIC (C. parapsilosis) of 0.24 µg/mL (≈ 0.844 µM). The MFC (C. pulcherrima) was greater than 1000 µg/mL, the MIC (C. pulcherrima) was 62.5 µg/mL (≈ 220 µM) and the MFC (C. lusitaniae) was 1.95 µg/mL (≈ 6.86 µM). For the same compound, the MIC (C. lusitaniae) was 0.48 µg/mL (≈ 1.69 µM).
